Literature values in patent US20150064117A1, “NOVEL POLYMORPHS OF REBAUDIOSIDE C AND METHODS FOR MAKING AND USING THE SAME” (Redpoint Bio Corporation, priority 2009, published 2015).
Like-named read-outs stand apart in the source and are kept apart here.

Key:
[1] = relative to sucrose

Row | Molecule | times sweeter than sucrose [1] | effect in mixture (presence and degree of synergism) (mixture with fructose, intensity equivalent to 3% (w/v-%) sucrose) | effect in mixture (presence and degree of synergism) (mixture with fructose, intensity equivalent to 5% (w/v-%) sucrose) | effect in mixture (presence and degree of synergism) (mixture with fructose, intensity equivalent to 7% (w/v-%) sucrose) | effect in mixture (presence and degree of synergism) (mixture with glucose, intensity equivalent to 3% (w/v-%) sucrose) | effect in mixture (presence and degree of synergism) (mixture with glucose, intensity equivalent to 5% (w/v-%) sucrose) | effect in mixture (presence and degree of synergism) (mixture with glucose, intensity equivalent to 7% (w/v-%) sucrose) | effect in mixture (presence and degree of synergism) (mixture with sucrose, intensity equivalent to 3% (w/v-%) sucrose) | effect in mixture (presence and degree of synergism) (mixture with sucrose, intensity equivalent to 5% (w/v-%) sucrose) | effect in mixture (presence and degree of synergism) (mixture with sucrose, intensity equivalent to 7% (w/v-%) sucrose)
1 | C=C1C[C@@]23CC[C@H]4[C@@](C)(CCC[C@@]4(C)C(=O)O[C@@H]4O[C@H](CO)[C@@H](O)[C@H](O)[C@H]4O)[C@@H]2CC[C@]1(O[C@@H]1O[C@H](CO)[C@@H](O)[C@H](O)[C@H]1O[C@@H]1O[C@@H](C)[C@H](O)[C@@H](O)[C@H]1O)C3 [dulcoside A] | 30 times |  |  |  |  |  |  |  |  | 
2 | C=C1C[C@@]23CC[C@H]4[C@@](C)(CCC[C@@]4(C)C(=O)O[C@@H]4O[C@H](CO)[C@@H](O)[C@H](O)[C@H]4O)[C@@H]2CC[C@]1(O[C@@H]1O[C@H](CO)[C@@H](O)[C@H](O[C@@H]2O[C@H](CO)[C@@H](O)[C@H](O)[C@H]2O)[C@H]1O[C@@H]1O[C@H](CO)[C@@H](O)[C@H](O)[C@H]1O)C3 [rebaudioside A] |  | additive | additive | suppressive | additive | additive | suppressive | synergistic | additive | additive
3 | Rebaudioside C | ≥ 40 times |  |  |  |  |  |  |  |  | 
